Patent US11857588B2, “Reproductive cell maintenance system” (Membrane Protective Technologies, Inc., priority 2005, dated 2024)
Like-named read-outs stand apart in the source and are kept apart here.

How the values were obtained:
stallion sperm cells [1] = assay type: cell-based
Procedure: In a second experiment (data set out to the right of Exp 2 in Tables 5-6), semen was collected from one stallion via artificial vagina. The motility of the ejaculate was determined objectively using a Hamilton-Thorn sperm analyzer with a 37° C. stage warmer. The assessed data included percentage of motile sperm cells, progressive motile sperm cells, as well as average path velocity, straight line velocity, and straightness of motile sperm cells in accordance with conventional operating procedures for the instrument. […]
Following dilution of each semen sample with E-Z Mixin CST and the corresponding adjuvant, the treated semen samples were cooled by reducing the temperature at a controlled rate to about 4° C. Motility was evaluated subjectively via light microscope immediately at 24, 38, and 72 h after being held at about 4° C. […]

stallion sperm cells [2] = assay type: cell-based; remark: listed apart in the source
Procedure: In a first experiment (data set out to the right of Exp 1 in Tables 1-6), semen was collected from two stallions via artificial vagina. The motility of each ejaculate was determined subjectively via light microscope and the semen was diluted to a final concentration of about 5×10^8 motile sperm cells/ml with E-Z freezin LE (Animal Reproduction Systems, Chino, Calif.) and combined to one each of thirteen 0.25 mL semen samples was an amount of a corresponding one of thirteen adjuvants: (1) no addition-control (“untreated control semen sample); 2) about 5% cyclodextrin; 3) about 2.5% cyclodextrin; 4) about 5% pulp oil in cyclodextrin; 5) about 2.5% pulp oil in cyclodextrin; 6) about 5% seed oil in cyclodextrin; 7) about 2.5% seed oil in cyclodextrin; 8) emulsion of about 5% seed oil, 9) emulsion of about 2.5% seed oil, 10) emulsion of about 5% pulp oil, 11) emulsion of about 2.5% pulp oil, 12) about 5% juice, and 13) about 2.5% juice. Throughout this description the amount of extract is expressed as a percentage volume to volume (v/v) unless otherwise indicated.
Following dilution of each semen sample with E-Z freezin LE and combining the diluted semen with the corresponding adjuvant (“treated semen samples”), the treated semen samples were cooled by reducing the temperature at a controlled rate to about 5° C. […]

For cyclodextrin, which “effect on sperm cells (spermicidal)” value (stallion sperm cells [1]) is on record?
The value was “spermicidal”.

What about the “effect on sperm cells (spermicidal)” value (stallion sperm cells [2]) of the same substance?
The value was “spermicidal”.
